One assay deals with PR-1. The assay can be described thus: PR-1 expression (RNA blot) after SA treatment. The assay is classed as in vivo, Arabidopsis thaliana. The text has this:
Plants and Growth Conditions. Wild-type plants (Arabidopsis thaliana ecotype Columbia (Col)) and pad4 plants from a line that had been backcrossed four times to the wild-type parent (Col) (Glazebrook et al., 1996, Genetics 143, 973-982) were used in this study. Arabidopsis ecotype Keswick (Ksk) was provided by Eric Holub (Horticulture Research International, Warwick, UK). Arabidopsis ecotype Landsberg erecta (Ler) plants carrying the nahG transgene were provided by Xinnian Dong (Bowling et al., 1994, Plant Cell 6, 1845-1857). nahG mutant plants used in this example, and all other examples, were of the Ler ecotype. Plants were grown in pots in Metro-Mix 200 soil (Scotts-Sierra Horticultural Products Company, Marysville, Ohio) in a growth chamber (22±2° C., 85% relative humidity, 100 μE s^−1 m^−2 fluorescent illumination) on a 12-hr light/dark cycle. Fully-expanded leaves of four-week old plants were used.
Inoculations with Bacteria and Treatment with Chemicals. Pseudomonas syringae pv maculicola (Psm) ES4326 (Dong et al., 1991, Plant Cell 3, 61-72; Crute et al., 1994, in Arabidopsis, eds. Meyerowitz & Somerville, Cold Spring Harbor Press, NY, pp. 705-747), Pseudomonas. syringae pv tomato (Pst) DC3000 (Cuppels, 1986, Appl. Environ. Microbiol. 52, 323-327) and Xanthomonas campestris pv campestris (Xcc) BP109 (Weiss et al., 1994, J. Bacteriol. 176, 3354-3359) have been described. […]

A further assay relates to Psm ES4326. The assay can be described thus: Psm ES4326 growth in plants sprayed with SA. The assay is classed as in vivo, Pseudomonas syringae pv maculicola. To be noted: 5 mM SA sprayed one day before infection; titer three days after infection; wild-type and pad4-1. The source says:
(§1) Inoculations with Bacteria and Treatment with Chemicals. Pseudomonas syringae pv maculicola (Psm) ES4326 (Dong et al., 1991, Plant Cell 3, 61-72; Crute et al., 1994, in Arabidopsis, eds. Meyerowitz & Somerville, Cold Spring Harbor Press, NY, pp. 705-747), Pseudomonas. syringae pv tomato (Pst) DC3000 (Cuppels, 1986, Appl. Environ. Microbiol. 52, 323-327) and Xanthomonas campestris pv campestris (Xcc) BP109 (Weiss et al., 1994, J. Bacteriol. 176, 3354-3359) have been described. The avirulence gene avrRpt2 was carried on plasmid pLH12 as described (Dong et al., 1991, Plant Cell 3, 61-72; Whalen et al., 1991, Plant Cell 3, 49-59). P. syringae strains were grown in King's B medium supplemented with appropriate antibiotics (Glazebrook and Ausubel, 1994, Proc. Natl. Acad. Sci. USA 91, 8955-8959), and Xcc BP1 09 was grown in Luria-Bertani medium supplemented with 50 μg/mL rifampicin. Bacteria were infiltrated into Arabidopsis plants as described (Glazebrook and Ausubel, 1994, PNAS USA 91, 8955-8959; Glazebrook et al., 1996, Genetics 146: 381-392). For camalexin assays, the bacterial dose for P. syringae strains was 3×10^4 colony-forming units (cfu)/cm^2 leaf area (equivalent to OD600=0.006); for Xcc BP109 it was 5×10^5 cfu/cm^2 (OD600=0.1). […]

The next assay relates to camalexin synthesis. The assay can be described thus: Camalexin assay in Psm ES4326-infected leaves. The assay is classed as in vivo, Arabidopsis thaliana. Particulars: SA sprayed one day before Psm ES4326 infection, assayed two days after infection.
Description: as §1
Phytoalexin Quantitation. […]

A further assay relates to PAD4 mRNA. Description: PAD4 RNA blot analysis after SA treatment. The assay is classed as in vivo, Arabidopsis thaliana. Particulars: 5 mM SA. The text has this:
Inoculations with Bacteria and Treatment with Chemicals. Pseudomonas syringae pv maculicola (Psm) ES4326 (Dong et al., 1991, Plant Cell 3, 61-72; Crute et al., 1994, in Arabidopsis, eds. Meyerowitz & Somerville, Cold Spring Harbor Press, NY, pp. 705-747), Pseudomonas. syringae pv tomato (Pst) DC3000 (Cuppels, 1986, Appl. Environ. Microbiol. 52, 323-327) and Xanthomonas campestris pv campestris (Xcc) BP109 (Weiss et al., 1994, J. Bacteriol. 176, 3354-3359) have been described. The avirulence gene avrRpt2 was carried on plasmid pLH12 as described (Dong et al., 1991, Plant Cell 3, 61-72; Whalen et al., 1991, Plant Cell 3, 49-59). P. syringae strains were grown in King's B medium supplemented with appropriate antibiotics (Glazebrook and Ausubel, 1994, Proc. Natl. Acad. Sci. USA 91, 8955-8959), and Xcc BP1 09 was grown in Luria-Bertani medium supplemented with 50 μg/mL rifampicin. Bacteria were infiltrated into Arabidopsis plants as described (Glazebrook and Ausubel, 1994, PNAS USA 91, 8955-8959; Glazebrook et al., 1996, Genetics 146: 381-392). For camalexin assays, the bacterial dose for P. syringae strains was 3×10^4 colony-forming units (cfu)/cm^2 leaf area (equivalent to OD600=0.006); for Xcc BP109 it was 5×10^5 cfu/cm^2 (OD600=0.1). For experiments involving extraction of total RNA from infected leaves, Psm ES4326 and Psm ES4326 carrying avrRpt2 were introduced at a dose of 10^4 cfu/cm^2 leaf area (equivalent to OD600=0.002). For determination of Psm ES4326 growth, plants were infected with Psm ES4326 at a dose of 10^3 cfu/cm^2 leaf area (equivalent to OD600=0.0002). After […] were excised and bacterial growth was assayed as described (Glazebrook et al., 1996, Genetics 143, 973-982). Data are reported as means and standard deviations of the log(cfu/cm^2) of six replicates. For chemical treatment, plants were sprayed with 5 mM SA or 5 mM silver nitrate with 0.02% Silwet L-77 (Lehle Seeds, Tucson, Ariz.) to reduce surface tension. Control plants were sprayed with water containing 0.02% Silwet L-77.
PAD4 RNA Blot Analysis. […]

On to `O=C(O)c1ccccc1O` [SA, salicylic acid], for which the “PR-1 mRNA level in pad4-1 plants” value in the assay with PR-1 (5 mM SA one day before Psm ES4326 infection, two days after infection) is listed as “comparable to that in wild-type plants”. For the same compound, the “PR-1 expression in response to SA” value in the assay with PR-1 (plants sprayed with 5 mM SA, wild-type and pad4-1, monitored for several days) was “induced similar levels of PR-1 expression in wild-type and pad4-1 plants”. Further, in the assay on Psm ES4326, the “resistance to Psm ES4326 (bacterial titer)” value is “induced comparable levels of resistance to Psm ES4326 in wild-type and pad4-1 plants”. For the same compound, in the assay with camalexin synthesis, the “camalexin levels in wild-type plants” value is on record as “little effect on camalexin levels”. The “camalexin levels in pad4-1 plants” value in the assay with camalexin synthesis (vs not pretreated) is given as “much higher camalexin levels”. Besides, the “PAD4 transcript levels in npr1-1 plants” value in the assay on PAD4 mRNA (six and twelve hours after treatment) is recorded as “undetectable”. In the assay with PAD4 mRNA (wild-type (Col), six and twelve hours after treatment), the “PAD4 transcript levels in wild-type plants” value was “markedly detectable”. In the assay on PAD4 mRNA (wild-type (Col, Ler), pad4-1, pad4-3, pad4-4 plants), the “PAD4 mRNA levels” value is reported as “increased rapidly after SA treatment”.
